Data published in paper PMC11674187, “Inhibitory Effects of Cenobamate on Multiple Human Cardiac Ion Channels and Possible Arrhythmogenic Consequences” (Biomolecules, 2024).
Where “and” joins values, the source holds several entries; their conditions need not be identical. Equal entries are not always repeated. Where two headings read alike, the source gives them in different places.

Experiments:
hNav1.7 = test system: hNav1.7; set-up: method as in ref [5] p. 8; conditions: hNav1.7 in HEK293 cells, ref [5] p. 8, cited from earlier work
[1] = cited from earlier work; for healthy volunteers with QT interval shortening greater than 20 ms: study YKP3089C020, ref [9] p. 11
[2] = cited from earlier work
hNav1.5 = biological target: T1, hNav1.5 (Homo sapiens, UniProt Q14524); test: Whole-cell patch-clamp on HEK293T cells, peak INa (standard, activation and inactivation protocols); format: cell-based
T1 construct: host or cells: HEK293T
T1 sequence (Q14524 whole entry): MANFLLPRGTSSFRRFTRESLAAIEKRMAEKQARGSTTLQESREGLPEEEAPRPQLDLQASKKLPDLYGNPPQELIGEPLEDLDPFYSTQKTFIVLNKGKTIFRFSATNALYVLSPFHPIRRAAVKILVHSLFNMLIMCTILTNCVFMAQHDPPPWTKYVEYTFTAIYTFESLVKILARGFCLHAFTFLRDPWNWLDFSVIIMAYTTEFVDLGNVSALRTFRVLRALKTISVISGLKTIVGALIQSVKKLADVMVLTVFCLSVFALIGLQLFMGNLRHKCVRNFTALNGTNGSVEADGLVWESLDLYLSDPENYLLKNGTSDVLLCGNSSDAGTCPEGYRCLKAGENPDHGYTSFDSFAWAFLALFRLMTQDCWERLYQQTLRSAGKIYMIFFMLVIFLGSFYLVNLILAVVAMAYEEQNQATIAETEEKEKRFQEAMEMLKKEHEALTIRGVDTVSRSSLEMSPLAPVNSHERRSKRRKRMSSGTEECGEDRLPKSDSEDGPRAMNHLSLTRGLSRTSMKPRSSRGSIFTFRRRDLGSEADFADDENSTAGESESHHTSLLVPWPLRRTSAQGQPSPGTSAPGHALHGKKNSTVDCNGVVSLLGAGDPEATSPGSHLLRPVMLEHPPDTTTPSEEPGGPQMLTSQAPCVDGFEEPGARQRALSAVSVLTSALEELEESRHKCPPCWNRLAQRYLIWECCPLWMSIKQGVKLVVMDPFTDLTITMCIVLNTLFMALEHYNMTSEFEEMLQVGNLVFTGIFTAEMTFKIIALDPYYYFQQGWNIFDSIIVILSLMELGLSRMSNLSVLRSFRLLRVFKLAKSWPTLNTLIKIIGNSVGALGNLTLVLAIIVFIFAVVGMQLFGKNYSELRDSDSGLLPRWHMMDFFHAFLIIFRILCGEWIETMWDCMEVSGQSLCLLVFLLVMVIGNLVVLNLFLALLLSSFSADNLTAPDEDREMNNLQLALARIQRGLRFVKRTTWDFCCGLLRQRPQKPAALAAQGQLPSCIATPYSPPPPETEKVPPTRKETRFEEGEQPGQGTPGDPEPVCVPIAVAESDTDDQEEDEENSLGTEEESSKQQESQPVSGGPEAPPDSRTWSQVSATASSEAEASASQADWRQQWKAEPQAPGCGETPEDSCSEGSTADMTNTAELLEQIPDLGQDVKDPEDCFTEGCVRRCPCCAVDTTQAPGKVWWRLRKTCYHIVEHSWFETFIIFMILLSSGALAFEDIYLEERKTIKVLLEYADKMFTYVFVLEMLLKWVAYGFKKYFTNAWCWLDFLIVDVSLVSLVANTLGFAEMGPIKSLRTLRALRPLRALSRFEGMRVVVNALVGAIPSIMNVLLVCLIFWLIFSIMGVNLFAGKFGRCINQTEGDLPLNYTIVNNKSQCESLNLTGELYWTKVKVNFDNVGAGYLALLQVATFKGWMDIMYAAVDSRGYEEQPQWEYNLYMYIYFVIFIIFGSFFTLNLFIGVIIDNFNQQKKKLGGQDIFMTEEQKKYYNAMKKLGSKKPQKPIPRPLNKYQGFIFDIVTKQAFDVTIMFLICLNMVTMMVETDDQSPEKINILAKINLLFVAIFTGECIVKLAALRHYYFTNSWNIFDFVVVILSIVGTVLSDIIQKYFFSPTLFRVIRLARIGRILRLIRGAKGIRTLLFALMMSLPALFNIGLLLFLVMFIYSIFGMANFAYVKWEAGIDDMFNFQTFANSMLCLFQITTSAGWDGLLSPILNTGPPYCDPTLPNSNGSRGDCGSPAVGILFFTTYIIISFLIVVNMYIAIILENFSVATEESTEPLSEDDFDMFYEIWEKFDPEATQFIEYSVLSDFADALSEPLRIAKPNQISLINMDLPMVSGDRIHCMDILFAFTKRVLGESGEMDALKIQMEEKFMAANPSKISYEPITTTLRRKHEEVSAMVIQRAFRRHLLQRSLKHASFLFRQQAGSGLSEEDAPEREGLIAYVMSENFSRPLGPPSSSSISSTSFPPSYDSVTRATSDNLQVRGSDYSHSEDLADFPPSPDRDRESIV
Method: (§1) Experiments were performed on HEK293T cell lines with persistent/inducible expression of different human cardiac ion channel isoforms: hNav1.5 and hKv7.1 + minK (Anaxon AG, Bern, Switzerland), hCav1.2 (α1c + β2 + α2δ1) (B’SYS GmbH, Witterswil, Switzerland), and hKv11.1 (hERG) (Cytocentrics Bioscience GmbH, Rostock, Germany). The cell lines were grown in standard conditions (37 °C, 5% CO2, 90% humidity) in DMEM:F12 medium (D8900, Sigma-Aldrich, Burlington, MA, USA) buffered with 15 mM HEPES, containing 3.15 g/L D-glucose and 0.055 g/L sodium pyruvate, supplemented with 1.2 g/L sodium bicarbonate, 10% fetal bovine serum (F2442, Sigma-Aldrich, Burlington, MA, USA), 2 mM L-glutamine (G7513, Sigma-Aldrich, Burlington, MA, USA), 1% penicillin–streptomycin (P4333, Sigma-Aldrich, Burlington, MA, USA), and with specific antibiotics for selection of transfected cells or induction of gene expression according to manufacturers’ instructions. The medium was changed every 2–3 days and the cells were passed weekly upon detachment with trypsin–EDTA solution. All cell culture media and solutions were sterile filtered with 0.22 μm polyvinylidene fluoride filters. Ncyte® vCardiomyocytes (Ncardia, Leiden, The Netherlands) were cultured in 24-well plates precoated with bovine fibronectin, following manufacturer’s instructions. For the experiments, cardiomyocytes were detached as described previously and plated on ϕ 10 mm glass coverslips, like the other cell lines.
(§2) Manual whole-cell patch-clamp experiments were performed at room temperature, with equipment as described in previous studies. Pipettes were pulled from Clark borosilicate glass capillaries with inner filament (GC150F-10, Harvard Apparatus, Holliston, MA, USA) and had typical resistances of 2–3 MΩ. Recordings were performed with a WPC-100 resistive feedback amplifier (ESF electronic, Göttingen, Germany) or an Axopatch 200B amplifier (Axon Instruments—Molecular Devices, San Jose, CA, USA) connected to a Digidata 1322A interface driven by the pClamp 8.2 Clampex module (Axon Instruments, part of Molecular Devices, San Jose, CA, USA). For different types of ion channel, we applied specific voltage-clamp protocols as follows: • - For hERG, a standard two-step activation protocol was used: holding at −70 mV, a 100 ms step at −50 mV used as current reference for measurements, a 2 s depolarizing step at +40 mV, followed by a 2 s step at −50 mV to elicit the peak hERG current by rapid recovery from inactivation, repeated sweeps at 10 s intervals, plus specific protocols to assess the voltage dependence of activation and inactivation, as described in Thomet et al., 2021 [11]. • - For hKv7.1 + minK, a general two-step activation protocol was used: holding at −110 mV, a 250 ms step at −80 mV with a brief (50 ms) step at −90 mV at the middle to monitor seal quality, a 3000 ms depolarizing step at +60 mV, followed by a 1000 ms step at −50 mV; repeated sweeps at 20 s intervals. • - For hCav1.2, a pharmacology protocol with holding at −80 mV, a first 100 ms step at −50 mV and a second 200 ms step at 0 mV, repeated sweeps at 20 s intervals with drug application after 5 sweeps if current levels were steady, plus an activation–inactivation protocol with holding at −80 mV, 1000 ms depolarizing steps from −80 to +50 mV in 10 mV increments, followed by 250 ms steps at +10 mV and a return to −80 mV; 14 sweeps at 20 s intervals. • - For hNav1.5, multiple voltage protocols were used, including the following: • - A standard pharmacology protocol with holding at −90 mV, a 20 ms step at −110 mV for seal monitoring, a 40 ms activation step at −10 mV, and repeated sweeps at 1 s intervals. […]

[3] = mouse; ref [5] p.10; cited from earlier work
hKv11.1 (hERG), IKr = biological target: T2, hKv11.1 (hERG), IKr (Homo sapiens, UniProt Q12809); test: Whole-cell patch-clamp on HEK293T cells, IKr; format: cell-based; conditions: human, HEK293T cells expressing hKv11.1 (hERG); for inhibition at 200 µM: pH 7.4, cenobamate 200 µM
T2 construct: host or cells: HEK293T
T2 sequence (Q12809 whole entry): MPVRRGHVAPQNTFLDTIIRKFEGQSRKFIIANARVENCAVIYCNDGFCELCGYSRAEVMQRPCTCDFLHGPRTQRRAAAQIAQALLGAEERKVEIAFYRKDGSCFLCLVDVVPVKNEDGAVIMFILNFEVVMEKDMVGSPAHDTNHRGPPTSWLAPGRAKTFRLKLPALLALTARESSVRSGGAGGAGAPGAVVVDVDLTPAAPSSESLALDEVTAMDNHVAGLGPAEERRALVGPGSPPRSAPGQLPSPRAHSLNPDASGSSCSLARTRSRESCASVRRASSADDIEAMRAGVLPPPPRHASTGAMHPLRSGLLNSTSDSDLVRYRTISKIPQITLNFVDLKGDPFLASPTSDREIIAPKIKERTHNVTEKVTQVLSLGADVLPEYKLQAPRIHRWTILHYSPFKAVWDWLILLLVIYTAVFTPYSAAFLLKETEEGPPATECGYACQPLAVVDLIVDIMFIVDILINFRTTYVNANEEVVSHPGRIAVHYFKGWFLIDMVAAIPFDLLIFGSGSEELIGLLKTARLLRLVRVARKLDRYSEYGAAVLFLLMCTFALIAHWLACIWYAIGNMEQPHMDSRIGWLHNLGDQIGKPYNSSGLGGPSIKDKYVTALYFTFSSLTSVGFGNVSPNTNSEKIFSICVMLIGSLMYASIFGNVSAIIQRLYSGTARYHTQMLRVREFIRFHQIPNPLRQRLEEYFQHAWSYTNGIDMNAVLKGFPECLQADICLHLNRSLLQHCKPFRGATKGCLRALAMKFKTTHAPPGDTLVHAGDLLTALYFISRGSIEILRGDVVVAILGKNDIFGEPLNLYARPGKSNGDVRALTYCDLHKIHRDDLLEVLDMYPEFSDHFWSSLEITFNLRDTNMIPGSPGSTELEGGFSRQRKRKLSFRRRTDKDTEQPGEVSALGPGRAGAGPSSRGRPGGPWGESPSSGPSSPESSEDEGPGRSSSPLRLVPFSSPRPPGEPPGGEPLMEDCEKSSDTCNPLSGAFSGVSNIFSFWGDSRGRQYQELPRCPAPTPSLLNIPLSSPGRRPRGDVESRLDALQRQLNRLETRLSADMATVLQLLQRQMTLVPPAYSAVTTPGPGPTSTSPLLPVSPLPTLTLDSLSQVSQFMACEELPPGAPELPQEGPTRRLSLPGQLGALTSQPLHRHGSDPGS
Method: as §1, §2

hKv11.1 (hERG) = biological target: T3, hKv11.1 (hERG) (Homo sapiens, UniProt Q12809); test: Whole-cell patch-clamp on HEK293T cells, IKr; format: cell-based
T3 construct: host or cells: HEK293T
T3 sequence (Q12809 whole entry): as above
Method: as §1, §2

Structure (SMILES): NC(=O)O[C@@H](Cn1ncnn1)c1ccccc1Cl [cenobamate]
- IC50 (hNav1.7; read-out: IC50 on late (persistent) INa): 41.8 µM
- IC50 (hNav1.7; read-out: estimated IC50 on peak (transient) Na+ current): > 500 µM
- healthy volunteers with QT interval shortening greater than 20 ms ([1]; 200 mg oral dose, 6–17% with placebo): 31%
- healthy volunteers with QT interval shortening greater than 20 ms ([1]; 500 mg): 66%
- QTc interval shortening ([1]; ref [9] pp. 11–12): > 20 ms
- QTc interval under cenobamate (not below) ([1]; ref [9] pp. 11–12): ≥ 300 ms
- protein binding ([2]; human, ref [5] p.10): 61.0%
- average binding to plasma proteins ([2]; study YKP3089C018, ref [5] p. 13): ~ 60% and 60%
- inhibition at 10 µM (hNav1.5; HEK-293T, cenobamate 10 µM, read-out: % INa inhibition (peak), mean (Table S2)): 8.6%
- inhibition at 10 µM (hNav1.5; HEK-293T, cenobamate 10 µM, read-out: % INa inhibition (peak), single experiments (Table S2)): 8.58%
- inhibition at 40 µM (hNav1.5; HEK-293T, cenobamate 40 µM, read-out: % INa inhibition (peak), mean (Table S2)): 37.7%
- inhibition at 100 µM (hNav1.5; HEK-293T, cenobamate 100 µM, read-out: % INa inhibition (peak), mean (Table S2)): 49%
- inhibition at 100 µM (hNav1.5; HEK-293T, cenobamate 100 µM, read-out: % INa inhibition (peak), single experiments (Table S2)): 52.7%
- inhibition at 200 µM (hNav1.5; HEK-293T, cenobamate 200 µM, read-out: % INa inhibition (peak), mean (Table S2)): 69.9%
- inhibition at 200 µM (hNav1.5; HEK-293T, cenobamate 200 µM, standard protocol, step at -10 mV, initial set, mean (SD), n = 6, read-out: average inhibition of peak INa): 69.5%
- inhibition at 1000 µM (hNav1.5; HEK-293T, cenobamate 1000 µM, read-out: % INa inhibition (peak), mean (Table S2)): 89.3%
- inhibition at 1000 µM (hNav1.5; HEK-293T, cenobamate 1000 µM, read-out: % INa inhibition (peak), single experiments (Table S2)): 89.6%
- IC50 (hNav1.5; INaIC50 (model script), value entered in C++ script): 87.6 µM
- IC50 (hNav1.5; apparent IC50 for peak INa inhibition, Hill coefficient nH = 1, room temperature): 87.6 µM and < 100 µM
- % INa inhibition (peak), single experiments (Table S2) (hNav1.5; cenobamate 10 µM): 9.79% and 10.02% and 5.97%
- % INa inhibition (peak), single experiments (Table S2) (hNav1.5; cenobamate 40 µM): 36.42% and 24.23% and 44.79% and 44.54% and 38.53%
- % INa inhibition (peak), single experiments (Table S2) (hNav1.5; cenobamate 100 µM): 51.80% and 49.36% and 42.07%
- % INa inhibition (peak), single experiments (Table S2) (hNav1.5; cenobamate 200 µM): 64.55% and 87.37% and 54.65% and 52.32% and 72.86%
- voltage shifts of voltage dependence of activation and steady-state inactivation (hNav1.5; cenobamate 200 µM, both activation and inactivation): > 10 mV
- voltage dependence of peak INa inhibition (hNav1.5; cenobamate 200 µM, multiple depolarizing steps): virtually voltage-independent
- average inhibition of peak INa (hNav1.5; cenobamate 200 µM, standard protocol, step at -10 mV, initial set, mean (SD), n = 6): 69.53 ± 14.63%
- % INa inhibition, single experiments (Table S1) (hNav1.5; cenobamate 200 µM, step at -10 mV): 56.27% and 68.71% and 86.95% and 54.87% and 87.66% and 62.74%
- % INa inhibition (peak), single experiments (Table S2) (hNav1.5; cenobamate 1000 µM): 91.76% and 89.36% and 86.34%
- protein binding [3]: 43.2%
- inhibition at 20 µM (hKv11.1 (hERG), IKr; pH 7.4, cenobamate 20 µM, vs. 4.1% in control experiments, read-out: average peak IKr (hERG) inhibition): 5.3 ± 1.8%
- inhibition at 200 µM (hKv11.1 (hERG), IKr; read-out: % IKr inhibition, single experiments (Table S7)): 8.01%
- inhibition at 200 µM (hKv11.1 (hERG), IKr; read-out: average peak IKr inhibition corrected for control (10.97 − 4.1)): 6.87%
- inhibition at 200 µM (hKv11.1 (hERG), IKr; step at -50 mV, read-out: relative peak IKr inhibition, mean): 11 ± 3.11%
- IC50 (hKv11.1 (hERG)): > 200 µM
- % IKr inhibition, single experiments (Table S7) (hKv11.1 (hERG); cenobamate 200 µM): 14.26% and 12.93% and 7.32% and 12.35%
